Converted amounts (≈) assume the structure as drawn.
What was measured:
LS174T [1] = assay: Compound was evaluated for in vitro cytotoxicity after 48 hour, against CEA-bearing LS174T human colon carcinoma cells, in absence of beta-L-CEM 231 conjugate; assay type: functional, cell-based
LS174T [2] = assay: Compound was evaluated for in vitro cytotoxicity after 6 hour, against CEA-bearing LS174T human colon carcinoma cells, in absence of beta-L-CEM 231 conjugate; assay type: functional, cell-based

SMILES | IC50 (LS174T [1]) [µg/mL] | IC50 (LS174T [2]; Homo sapiens, LS174T, 6 h, read-out: IC50) [µg/mL] | IC50 (LS174T [2]; ls174t) [µg/mL]
CC[C@]1(O)C[C@@H]2CN(CCc3c([nH]c4ccccc34)[C@@](C(=O)OC)(c3cc4c(cc3OC)N(C)C3[C@]45CCN4CC=C[C@@](CC)([C@@H](O)[C@]3(O)C(=O)NCCS)[C@H]45)C2)C1 (stereo not given in full) | < 0.001 | 0.26 (≈ 0.319 µM) | 
CC[C@]1(O)C[C@@H]2CN(CCc3c([nH]c4ccccc34)[C@@](C(=O)OC)(c3cc4c(cc3OC)N(C)C3[C@]45CCN4CC=C[C@@](CC)([C@@H](O)[C@]3(O)C(=O)NCCSCC3=C(C(=O)O)N6C(=O)[C@@H](NC(=O)Cc7cccs7)[C@H]6SC3)[C@H]45)C2)C1 (single isomer, unassigned; (+)) |  |  | 0.26 (≈ 0.226 µM)
CC[C@]1(O)C[C@@H]2CN(CCc3c([nH]c4ccccc34)[C@@](C(=O)OC)(c3cc4c(cc3OC)N(C)C3[C@]45CCN4CC=C[C@@](CC)([C@@H](O)[C@]3(O)C(=O)NCCSCC3=C(C(=O)O)N6C(=O)[C@@H](NC(=O)Cc7cccs7)[C@H]6SC3)[C@H]45)C2)C1 (single isomer, unassigned; (-)) | < 0.001 |  | 2.15 (≈ 1.87 µM)
